Results: patent US20050239656A1, “Pyridine compounds or salts thereof and herbicides containing the same” (priority 2002, published 2005)

Assays:
[1] = system: japanese bulrush; assay: Test Example 3: paddy pot test, application under submerged conditions; assay type: in vivo, Scirpus juncoides; conditions: submerged application at 0.5 leaf stage, visually observed 14 days after application, 0 = non-treated, 100 = complete kill
Procedure, shortened: (§1)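 Visual growth-control rating (0 = untreated, 100 = complete kill) 14 days after treatment. The formulated compound, as a diluted wettable powder or emulsifiable concentrate, went into 3–4 cm flood water at a predetermined active-ingredient dose once the weeds reached 0.5 leaf stage (wapato: primary leaf stage).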

[2] = system: redroot pigweed; assay: Test Example 2: soil surface treatment, upland pot test; assay type: in vivo, Amaranthus retroflexus L.
Source text: (§2) Upland field soil was put into a 1/170,000 ha pot, and seed of various plants (barnyardgrass, crabgrass, green foxtail, redroot pigweed, prickly sida, velvetleaf, rice, wheat, corn, soybean) were sown. On the 1st day after the sowing, a wettable powder or emulsifiable concentrate having the compound of the present invention formulated in accordance with a usual formulation method, was weighed so that the active ingredient would be a predetermined amount, and diluted with water in an amount of 1,500 L/ha. The herbicide thus adjusted was applied by a small size sprayer for soil surface treatment. On the 20th to 28th days after the application of the herbicide, the growth of the respective plants was visually observed, and the herbicidal effects were evaluated by the growth controlling degrees (%) ranging from 0 (equivalent to the non-treated plot) to 100 (complete kill), whereby the results shown in Table 4, were obtained.

[3] = system: rice; assay: as above; assay type: in vivo, Oryza sativa L.
Source text: as §2

[4] = system: green foxtail; assay: as above; assay type: in vivo, Setaria viridis L.
Source text: as §2

[5] = system: corn; assay: as above; assay type: in vivo, Zea mays L.
Source text: as §2

[6] = system: rice (var. Nihonbare); assay: Test Example 3: paddy pot test, transplanted rice; assay type: in vivo, Oryza sativa L.; conditions: applied 4th day after transplantation, visually observed 21st day after application, 0 = non-treated, 100 = complete kill
Procedure, shortened: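 Rice (var. Nihonbare) at 2 leaf stage transplanted 3 cm deep into puddled paddy soil under 3–4 cm flooding; on day 4 after transplanting, diluted wettable powder or emulsifiable concentrate applied by pipette under submerged conditions at a set active-ingredient dose. Growth scored visually 21 days after application, 0 (untreated) to 100 (complete kill) %.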

[7] = system: japanese ribbon wapato; assay: Test Example 3: paddy pot test, application under submerged conditions; assay type: in vivo, Sagittaria pygniaea; conditions: submerged application at primary leaf stage, visually observed 14 days after application, 0 = non-treated, 100 = complete kill
Procedure, shortened: as §1

[8] = system: velvetleaf; assay: Test Example 2: soil surface treatment, upland pot test; assay type: in vivo, Abutilon theophrasti MEDIC.
Source text: as §2

[9] = system: crabgrass; assay: as above; assay type: in vivo, Digitaria sanguinalis L.
Source text: as §2

[10] = system: prickly sida; assay: as above; assay type: in vivo, Sida spinosa L.
Source text: as §2

[11] = system: soybean; assay: as above; assay type: in vivo, Glycine max Merr.
Source text: as §2

[12] = system: barnyardgrass; assay: as above; assay type: in vivo, Echinochloa crus-galli L.
Source text: as §2

[13] = system: barnyardgrass; assay: Test Example 3: paddy pot test, application under submerged conditions; assay type: in vivo, Echinochloa crus-galli L.; conditions: submerged application at 0.5 leaf stage, visually observed 14 days after application, 0 = non-treated, 100 = complete kill
Procedure, shortened: as §1

[14] = active ingredient 500 g/ha, observed 20th to 28th day
[15] = active ingredient 250 g/ha, observed 20th to 28th day
[16] = active ingredient 500 g/ha, observed day 21, 0 = non-treated, 100 = complete kill

## Cc1ccc(CC(=O)N(C)C(c2cnccc2C(F)(F)F)C(C)C)c(F)c1 (racemic) [I-109]
[1]; active ingredient 125 g/ha
  Growth controlling degree (%) Japanese bulrush: 90%
[2]; [14]
  Growth controlling degree (%) Redroot pigweed: 70%
[3]; [14]
  Growth controlling degree (%) Rice: 20%
[4]; [14]
  Growth controlling degree (%) Green foxtail: 70%
[5]; [14]
  Growth controlling degree (%) Corn: 10%
[6]; active ingredient 125 g/ha
  Growth controlling degree (%) Rice: 0%
[7]; active ingredient 125 g/ha
  Growth controlling degree (%) Japanese ribbon wapato: 60%
[8]; [14]
  Growth controlling degree (%) Velvetleaf: 0%
[9]; [14]
  Growth controlling degree (%) Crabgrass: 98%
[10]; [14]
  Growth controlling degree (%) Prickly sida: 0%
[11]; [14]
  Growth controlling degree (%) Soyabean: 0%
[12]; [14]
  Growth controlling degree (%) Barnyardgrass: 0%
[13]; active ingredient 125 g/ha
  Growth controlling degree (%) Barnyardgrass: 95%

## CC(C)C(c1cnccc1C(F)(F)F)N(C)C(=O)Cc1c(F)ccc(F)c1F (stereo not shown) [Compound I-17]
[1]; active ingredient 500 g/ha
  Growth controlling degree (%) Japanese bulrush: 90%
[2]; [14]
  Growth controlling degree (%) Redroot pigweed: 50%
[3]; [14]
  Growth controlling degree (%) Rice: 30%
[4]; [14]
  Growth controlling degree (%) Green foxtail: 100%
[5]; [14]
  Growth controlling degree (%) Corn: 20%
[6]; active ingredient 500 g/ha
  Growth controlling degree (%) Rice: 35%
[7]; active ingredient 500 g/ha
  Growth controlling degree (%) Japanese ribbon wapato: 90%
[8]; [14]
  Growth controlling degree (%) Velvetleaf: 80%
[9]; [14]
  Growth controlling degree (%) Crabgrass: 98%
[10]; [14]
  Growth controlling degree (%) Prickly sida: 90%
[11]; [14]
  Growth controlling degree (%) Soyabean: 20%
[12]; [14]
  Growth controlling degree (%) Barnyardgrass: 100%

## CC(C)C(c1cnccc1C(F)(F)F)N(C)C(=O)Cc1ccccc1F (stereo not shown) [Compound I-25]
[1]; active ingredient 500 g/ha
  Growth controlling degree (%) Japanese bulrush: 98%
[2]; [15]
  Growth controlling degree (%) Redroot pigweed: 100%
[3]; [15]
  Growth controlling degree (%) Rice: 20%
[4]; [15]
  Growth controlling degree (%) Green foxtail: 100%
[5]; [15]
  Growth controlling degree (%) Corn: 20%
[6]; active ingredient 500 g/ha
  Growth controlling degree (%) Rice: 30%
[7]; active ingredient 500 g/ha
  Growth controlling degree (%) Japanese ribbon wapato: 100%
[8]; [15]
  Growth controlling degree (%) Velvetleaf: 95%
[9]; [15]
  Growth controlling degree (%) Crabgrass: 100%
[10]; [15]
  Growth controlling degree (%) Prickly sida: 100%
[11]; [15]
  Growth controlling degree (%) Soyabean: 10%
[12]; [15]
  Growth controlling degree (%) Barnyardgrass: 98%

## CCN(C(=O)Cc1ccc(C(F)(F)F)cc1)C(c1cnccc1C(F)(F)F)C(C)C (stereo not shown) [Compound I-79]
[1]; active ingredient 250 g/ha
  Growth controlling degree (%) Japanese bulrush: 70%
[2]; [14]
  Growth controlling degree (%) Redroot pigweed: 80%
[3]; [14]
  Growth controlling degree (%) Rice: 10%
[4]; [14]
  Growth controlling degree (%) Green foxtail: 100%
[5]; [14]
  Growth controlling degree (%) Corn: 10%
[6]; active ingredient 250 g/ha
  Growth controlling degree (%) Rice: 20%
[7]; active ingredient 250 g/ha
  Growth controlling degree (%) Japanese ribbon wapato: 40%
[8]; [14]
  Growth controlling degree (%) Velvetleaf: 80%
[9]; [14]
  Growth controlling degree (%) Crabgrass: 100%
[10]; [14]
  Growth controlling degree (%) Prickly sida: 100%
[11]; [14]
  Growth controlling degree (%) Soyabean: 10%
[12]; [14]
  Growth controlling degree (%) Barnyardgrass: 100%
[13]; active ingredient 250 g/ha
  Growth controlling degree (%) Barnyardgrass: 100%

## CC(C)C(c1cnccc1Cl)N(C)C(=O)Cc1ccccc1Cl (stereo not shown) [Compound I-81]
[1]; active ingredient 250 g/ha
  Growth controlling degree (%) Japanese bulrush: 95%
[2]; [14]
  Growth controlling degree (%) Redroot pigweed: 70%
[3]; [14]
  Growth controlling degree (%) Rice: 0%
[4]; [14]
  Growth controlling degree (%) Green foxtail: 70%
[5]; [14]
  Growth controlling degree (%) Corn: 0%
[6]; active ingredient 250 g/ha
  Growth controlling degree (%) Rice: 10%
[7]; active ingredient 250 g/ha
  Growth controlling degree (%) Japanese ribbon wapato: 0%
[8]; [14]
  Growth controlling degree (%) Velvetleaf: 0%
[9]; [14]
  Growth controlling degree (%) Crabgrass: 90%
[10]; [14]
  Growth controlling degree (%) Prickly sida: 10%
[11]; [14]
  Growth controlling degree (%) Soyabean: 0%
[12]; [14]
  Growth controlling degree (%) Barnyardgrass: 98%
[13]; active ingredient 250 g/ha
  Growth controlling degree (%) Barnyardgrass: 98%

## CC(C)C(c1cnccc1Cl)N(C)C(=O)COc1ccccc1 (stereo not shown) [Compound I-84]
[1]; active ingredient 250 g/ha
  Growth controlling degree (%) Japanese bulrush: 98%
[2]; [14]
  Growth controlling degree (%) Redroot pigweed: 50%
[3]; [14]
  Growth controlling degree (%) Rice: 20%
[4]; [14]
  Growth controlling degree (%) Green foxtail: 30%
[5]; [14]
  Growth controlling degree (%) Corn: 20%
[6]; active ingredient 250 g/ha
  Growth controlling degree (%) Rice: 0%
[7]; active ingredient 250 g/ha
  Growth controlling degree (%) Japanese ribbon wapato: 20%
[8]; [14]
  Growth controlling degree (%) Velvetleaf: 0%
[9]; [14]
  Growth controlling degree (%) Crabgrass: 70%
[10]; [14]
  Growth controlling degree (%) Prickly sida: 0%
[11]; [14]
  Growth controlling degree (%) Soyabean: 0%
[12]; [14]
  Growth controlling degree (%) Barnyardgrass: 80%
[13]; active ingredient 250 g/ha
  Growth controlling degree (%) Barnyardgrass: 98%

## CC(C)C(c1cnccc1C(F)(F)F)N(C)C(=O)C=Cc1cccnc1 (stereo not shown) [Compound I-184]
[1]; active ingredient 500 g/ha
  Growth controlling degree (%) Japanese bulrush: 90%
[2]; [14]
  Growth controlling degree (%) Redroot pigweed: 30%
[3]; [14]
  Growth controlling degree (%) Rice: 20%
[4]; [14]
  Growth controlling degree (%) Green foxtail: 40%
[5]; [14]
  Growth controlling degree (%) Corn: 0%
[6]; active ingredient 500 g/ha
  Growth controlling degree (%) Rice: 10%
[8]; [14]
  Growth controlling degree (%) Velvetleaf: 50%
[9]; [14]
  Growth controlling degree (%) Crabgrass: 98%
[10]; [14]
  Growth controlling degree (%) Prickly sida: 80%
[11]; [14]
  Growth controlling degree (%) Soyabean: 20%
[12]; [14]
  Growth controlling degree (%) Barnyardgrass: 30%
[13]; active ingredient 500 g/ha
  Growth controlling degree (%) Barnyardgrass: 70%

## CC(C)C(c1cnccc1C(F)(F)F)N(C)C(=O)Cc1ccc(Cl)cc1 (stereo not shown) [I-23]
[1]; active ingredient 500 g/ha
  Growth controlling degree (%) Japanese bulrush: 90%
[2]; [15]
  Growth controlling degree (%) Redroot pigweed: 85%
[3]; [15]
  Growth controlling degree (%) Rice: 0%
[4]; [15]
  Growth controlling degree (%) Green foxtail: 98%
[5]; [15]
  Growth controlling degree (%) Corn: 10%
[6]; active ingredient 500 g/ha
  Growth controlling degree (%) Rice: 30%
[7]; active ingredient 500 g/ha
  Growth controlling degree (%) Japanese ribbon wapato: 85%
[8]; [15]
  Growth controlling degree (%) Velvetleaf: 60%
[9]; [15]
  Growth controlling degree (%) Crabgrass: 98%
[10]; [15]
  Growth controlling degree (%) Prickly sida: 98%
[11]; [15]
  Growth controlling degree (%) Soyabean: 20%
[12]; [15]
  Growth controlling degree (%) Barnyardgrass: 95%

## CC(C)C(c1cnccc1C(F)(F)F)N(C)C(=O)COc1cccc(C(F)(F)F)c1 (stereo not shown) [I-254]
[1]; active ingredient 250 g/ha
  Growth controlling degree (%) Japanese bulrush: 98%
[2]; [16]
  Growth controlling degree (%) Redroot pigweed: 50%
[3]; [16]
  Growth controlling degree (%) Rice: 10%
[4]; [16]
  Growth controlling degree (%) Green foxtail: 100%
[5]; [16]
  Growth controlling degree (%) Corn: 10%
[6]; active ingredient 250 g/ha
  Growth controlling degree (%) Rice: 0%
[8]; [16]
  Growth controlling degree (%) Velvetleaf: 70%
[9]; [16]
  Growth controlling degree (%) Crabgrass: 98%
[10]; [16]
  Growth controlling degree (%) Prickly sida: 90%
[11]; [16]
  Growth controlling degree (%) Soyabean: 10%
[12]; [16]
  Growth controlling degree (%) Barnyardgrass: 90%
[13]; active ingredient 250 g/ha
  Growth controlling degree (%) Barnyardgrass: 100%
